“And” between values parts separate entries of the source, which are not always exact repeats. Identical values can stand only once.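 Briefly, cells in 96-well plates were exposed to five compound concentrations for 48 h, and endpoints were estimated by linear interpolation. Abbreviation: GI50, concentration required for 50% inhibition of growth. At the TGI there is no net growth.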
Assays:
Assay in all cases: growth of human tumour cells (NCI), 48 h
SK-MEL-2 melanoma = test system: SK-MEL-2 melanoma
NCI-H226 lung = test system: NCI-H226 lung
786-0 renal = test system: 786-0 renal
SR leukemia = test system: SR leukemia
UO-31 renal = test system: UO-31 renal
NCI-H522 lung = test system: NCI-H522 lung
ACHN renal = test system: ACHN renal
SF-295 CNS = test system: SF-295 CNS
U251 CNS = test system: U251 CNS
CCRF-CEM leukemia = test system: CCRF-CEM leukemia

SMILES	GI50 (SK-MEL-2 melanoma) [µM]	TGI (SK-MEL-2 melanoma) [µM]	GI50 (NCI-H226 lung) [µM]	TGI (NCI-H226 lung) [µM]	GI50 (786-0 renal) [µM]	TGI (786-0 renal) [µM]	GI50 (SR leukemia) [µM]	TGI (SR leukemia) [µM]	GI50 (UO-31 renal) [µM]	TGI (UO-31 renal) [µM]	GI50 (NCI-H522 lung) [µM]	TGI (NCI-H522 lung)	GI50 (ACHN renal) [µM]	TGI (ACHN renal) [µM]	GI50 (SF-295 CNS) [µM]	TGI (SF-295 CNS)	GI50 (U251 CNS) [µM]	TGI (U251 CNS) [µM]	TGI (CCRF-CEM leukemia) [µM]	GI50 (CCRF-CEM leukemia) [µM]
O=S(=O)(NC1=NCCN1C(=S)SN1CCn2c1nsc2=S)c1ccc(Oc2ccccc2)cc1	29.3	75.5	> 100	> 100	63.8	> 100	3.7	45.8	> 100	> 100	26.2	69 µM	81.3	> 100	> 100	> 100 µM	> 100	> 100		
Brc1ccccc2cc(-c3ccccc3)nc1-2		18.6		37.7		10.8				25.5		21.7 µM		20.6		48.9 µM		37.5	> 48.5	
CCN(CC)CCNC(=O)c1cccc2c1-c1ccccc1C2=O	> 100	> 100	> 100	> 100	> 100	> 100			> 100	> 100	> 100	> 100 µM	> 100	> 100	> 100	> 100 µM	> 100	> 100	> 100	> 100
CC(=O)[CH-]C(=O)c1ccccc1.CC(=O)[CH-]C(=O)c1ccccc1.Cl.[O-]c1ccnc2ccccc12.[O-]c1ccnc2ccccc12.[Ti+4]	> 100	> 100	> 100	> 100	> 100	> 100			> 100	> 100	> 100	> 100 µM	> 100	> 100	> 100	> 100 µM	> 100	> 100	> 100	> 100
COC(=O)[C@]12CC[C@@H](C)[C@H](C)[C@@H]1C1=CC[C@@H]3[C@@]4(C)C(C=O)=C[C@@](C)(CO)[C@@H]4[C@H](O)C[C@@]3(C)[C@]1(C)CC2	7.26	22.5	13.9	46.9	2.97	11.1	1.92	6.74	2.28	12.2			3.47	12.2	3.94	16.5 µM	3.83	13.8	13.7	3.73
Cc1cccc(C)c1NC(=O)CCC(=O)NC(N)=NC#N				> 100		> 100		> 100		> 100		> 100 µM		> 100		> 100 µM		> 100	> 100	
CC1(C)C(N2CCOCC2)CS1(=O)=O (stereo not given)		> 10		> 10		> 10				> 10		> 10 µM		> 10		> 10 µM		> 10	> 10	
COc1cccc2c1C(=O)c1c(O)c3c(c(O)c1C2=O)C[C@@](O)(C(=O)CO)CC3OC1CC(N)C(OC2CCCCO2)C(C)O1 (stereo not given in full)		4.1			0.0131		< 0.001			5.46	0.0409	0.282 µM and 1.72 µM		0.029	0.00963	1.13 µM and 2.44 µM	0.00812			0.00327
O=C(/C=C/c1ccccc1)c1cccc2ccccc12	2.97	8.3	1.99	6.32	2.82	7.25	1.17	3.75	2.68	12.6	2.75	8.41 µM	3.66	14.3			2.14	6.02	17.8	2.71
Cc1ccc(S(=O)(=O)OCOS(=O)(=O)c2ccc(C)cc2)cc1		> 100				> 100		> 100		> 100		> 100 µM		> 100		> 100 µM		> 100	> 100	
Cc1ccc2c(c1)-c1c3c(nn1C)-c1ccccc1SC3O2 (stereo not given)		> 100				> 100				88.7		> 100 µM		> 100		> 100 µM		> 100	> 100	
CCOc1cc(-c2nncn2C)ccc1Nc1ncc2cc(C)nc(NCC(C)(C)C)c2n1	> 100	> 100	> 23.5	> 100	> 100	> 100	0.15	> 75.8			> 64.4	> 100 µM		> 100	> 100	> 100 µM	> 100	> 100	> 100	0.321
COc1ccc(Oc2nc3cc(N)cc(N)c3nc2-c2ccccc2)cc1	25.1	87.5			24.4	> 100	18.5	> 100	28.5	> 100	31.4	> 100 µM	36.4	> 100	23.4	52.4 µM	26.6	> 100	12.6	2.97
COc1cc(C(=O)/C=C/c2cc(-c3ccc4c(c3)OCO4)n[nH]2)cc(OC)c1OC			1.52	4.25	1.84	3.46	1.2	5.63	1.34	2.67	1.59	3.41 µM	2.2	4.95	2.58	10.1 µM	1.21	2.49	5.74	2
COC(=O)c1c[nH]c2cc(OC(C)C)c(OC(C)C)cc2c1=O	> 100	> 100	> 100	> 100	> 100	> 100	> 100	> 100	> 100	> 100	> 100	> 100 µM	> 100	> 100			> 100	> 100	> 100	> 100
O=S1(=O)c2ccccc2N(c2ccccc2)c2nnnn21		> 100		> 100		32.7				> 100		38.9 µM		> 100		> 100 µM		> 100	31	

Reference: PubChem BioAssay (NCI)
